Experimental data published in ChEMBL document CHEMBL6153028, “Understanding the synergistic sensitization of natural products and antibiotics: An effective strategy to combat MRSA” (2025).

Key:
Format in all cases: functional
Staphylococcus aureus [1] = assay: Antibacterial activity against methicillin-resistant Staphylococcus aureus ATCC 33592 assessed as reduction in bacterial growth measured for 24 hrs by CLSI protocol based two-fold serial dilution method
Staphylococcus aureus [2] = assay: Synergistic antibacterial activity against methicillin resistant Staphylococcus aureus assessed as fractional inhibitory concentration index in presence of penicillin by checkerboard assay
Staphylococcus aureus [3] = assay: Synergistic antibacterial activity against methicillin resistant Staphylococcus aureus assessed as fractional inhibitory concentration index in presence of oxacillin incubated for 24 hrs by checkerboard assay
Staphylococcus aureus [4] = assay: Synergistic antibacterial activity against methicillin resistant Staphylococcus aureus assessed as fractional inhibitory concentration index in presence of ampicillin incubated for 24 hrs by checkerboard assay
Staphylococcus aureus [5] = assay: Synergistic antibacterial activity against methicillin resistant Staphylococcus aureus assessed as fractional inhibitory concentration index in presence of penicillin incubated for 24 hrs by checkerboard assay
Staphylococcus aureus [6] = assay: Synergistic antibacterial activity against methicillin resistant Staphylococcus aureus clinical isolate 003 assessed as fractional inhibitory concentration in presence of norfloxacin
Staphylococcus aureus [7] = assay: Synergistic antibacterial activity against methicillin resistant Staphylococcus aureus assessed as fractional inhibitory concentration index in presence of erythromycin incubated for 24 hrs by checkerboard assay
Staphylococcus aureus [8] = assay: Synergistic antibacterial activity against methicillin resistant Staphylococcus aureus assessed as fractional inhibitory concentration index in presence of ceftriaxone
Staphylococcus aureus [9] = assay: Synergistic antibacterial activity against methicillin resistant Staphylococcus aureus assessed as fractional inhibitory concentration index in presence of ampicillin
Staphylococcus aureus [10] = assay: Synergistic antibacterial activity against methicillin resistant Staphylococcus aureus assessed as fractional inhibitory concentration index in presence of ceftazidime
Staphylococcus aureus [11] = assay: Synergistic antibacterial activity against methicillin resistant Staphylococcus aureus assessed as fractional inhibitory concentration index in presence of levofloxacin
Staphylococcus aureus [12] = assay: Antibacterial activity against methicillin-resistant Staphylococcus aureus assessed as reduction in microbial growth by CLSI based broth microdilution method
Staphylococcus aureus [13] = assay: Synergistic antimicrobial activity against methicillin resistant Staphylococcus aureus assessed as fractional inhibitory concentration index incubated for 24 hrs in presence of Oxacillin by checkerboard assay
Staphylococcus aureus [14] = assay: Synergistic antibacterial activity against methicillin-resistant Staphylococcus aureus assessed as fractional inhibitory concentration index incubated for 24 hrs in presence of cefazolin by checkerboard assay
Staphylococcus aureus [15] = assay: Synergistic antibacterial activity against methicillin-resistant Staphylococcus aureus assessed as fractional inhibitory concentration index incubated for 24 hrs in presence of Nafcillin by checkerboard assay
Staphylococcus aureus [16] = assay: Synergistic antibacterial activity against methicillin resistant Staphylococcus aureus assessed as fractional inhibitory concentration index in presence of tetracycline
Staphylococcus aureus [17] = assay: Synergistic antibacterial activity against methicillin resistant Staphylococcus aureus assessed as fractional inhibitory concentration index in presence of norfloxacin; settings: time 24 hrs
Staphylococcus aureus [18] = assay: Synergistic antibacterial activity against methicillin resistant Staphylococcus aureus assessed as fractional inhibitory concentration index in presence of streptomycin incubated for 24 hrs by checkerboard assay
Staphylococcus aureus [19] = assay: Synergistic antimicrobial activity against methicillin-resistant Staphylococcus aureus assessed as fractional inhibitory concentration index in presence of amoxicillin
Staphylococcus aureus [20] = assay: Synergistic antibacterial activity against methicillin-resistant Staphylococcus aureus assessed as fractional inhibitory concentration index in presence of cefoxitin
Staphylococcus aureus [21] = assay: Synergistic antibacterial activity against methicillin resistant Staphylococcus aureus assessed as fractional inhibitory concentration index in presence of ciprofloxacin
Staphylococcus aureus [22] = assay: Synergistic antibacterial activity against methicillin resistant Staphylococcus aureus assessed as fractional inhibitory concentration index in presence of gentamicin
Staphylococcus aureus [23] = assay: Synergistic antimicrobial activity against methicillin resistant Staphylococcus aureus assessed as fractional inhibitory concentration index incubated for 24 hrs in presence of oxytetracycline by checkerboard assay
Staphylococcus aureus [24] = assay: Synergistic antimicrobial activity against methicillin resistant Staphylococcus aureus assessed as fractional inhibitory concentration index incubated for 24 hrs in presence of linezolid by checkerboard assay
Staphylococcus aureus [25] = assay: Synergistic antimicrobial activity against methicillin resistant Staphylococcus aureus assessed as fractional inhibitory concentration index incubated for 24 hrs in presence of daptomycin by checkerboard assay

## Oc1cc(O)c2c(c1)O[C@H](c1ccc(O)c(O)c1)[C@@H](O)C2 [CIANIDANOL]
Staphylococcus aureus [1]
  MIC: > 1020 µg/mL

## O=C1C[C@@H](c2ccc(O)cc2)Oc2cc(O)ccc21 [LIQUIRTIGENIN]
Staphylococcus aureus [2]
  fractional inhibitory concentration index (FICI): 0.375
Staphylococcus aureus [3]
  fractional inhibitory concentration index (FICI): 0.372
Staphylococcus aureus [4]
  fractional inhibitory concentration index (FICI): 0.375

## O=C(/C=C/c1ccc(O)cc1)c1ccc(O)cc1O [ISOLIQUIRITIGENIN]
Staphylococcus aureus [5]
  fractional inhibitory concentration index (FICI): 0.375
Staphylococcus aureus [3]
  fractional inhibitory concentration index (FICI): 0.312
Staphylococcus aureus [4]
  fractional inhibitory concentration index (FICI): 0.375

## CC(C)=CCC/C(C)=C\C=O
Staphylococcus aureus [6]
  fractional inhibitory concentration index (FICI): <0.5
Staphylococcus aureus [7]
  fractional inhibitory concentration index (FICI): <0.5

## O=c1cc(-c2ccc(O)cc2)oc2cc(O)cc(O)c12 [APIGENIN]
Staphylococcus aureus [8]
  fractional inhibitory concentration index (FICI): 0.18
Staphylococcus aureus [9]
  fractional inhibitory concentration index (FICI): 0.18

## C/C(=C\C(O)=C\O)[C@@H]1Oc2cc(O[C@@H]3O[C@@H](C)[C@H](O)[C@@H](O)[C@H]3O)cc(O)c2C(=O)[C@H]1O
Staphylococcus aureus [10]
  fractional inhibitory concentration index (FICI): 0.187
Staphylococcus aureus [11]
  fractional inhibitory concentration index (FICI): 0.25

## C=CC(C)(C)c1cc(-c2coc3cc(O)cc(O)c3c2=O)c(CC=C(C)C)c(O)c1O
Staphylococcus aureus [12]
  MIC: 12.5 µg/mL

## Cc1cc(O)c2c(=O)c3c(O)cc(O)c4c5c(O)cc(O)c6c(=O)c7c(O)cc(C)c8c1c2c(c34)c(c78)c65 [HYPERICIN]
Staphylococcus aureus [13]
  fractional inhibitory concentration index (FICI): 0.1
Staphylococcus aureus [14]
  fractional inhibitory concentration index (FICI): 0.19
Staphylococcus aureus [15]
  fractional inhibitory concentration index (FICI): 0.19

## COc1cc2oc(-c3ccc(O)cc3O)c(CC=C(C)C)c(=O)c2c(O)c1/C=C/C(C)C [ARTOCARPIN]
Staphylococcus aureus [16]
  fractional inhibitory concentration index (FICI): 0.24
Staphylococcus aureus [17]
  fractional inhibitory concentration index (FICI): 0.15
Staphylococcus aureus [9]
  fractional inhibitory concentration index (FICI): 0.37

## CC(C)=CCc1cc([C@@H]2CC(=O)c3ccc(O)c(CC=C(C)C)c3O2)ccc1O [GLABROL]
Staphylococcus aureus [18]
  fractional inhibitory concentration index (FICI): 0.188

## CC1(C)CCC2=C(O1)c1ccccc1C(=O)C2=O [LAPACHONE]
Staphylococcus aureus [19]
  fractional inhibitory concentration index (FICI): 0.07
Staphylococcus aureus [20]
  fractional inhibitory concentration index (FICI): 0.25

## CC(C)=CCc1c(O)cc(O)c2c1O[C@H](c1ccc(O)cc1)CC2=O
Staphylococcus aureus [3]
  fractional inhibitory concentration index (FICI): 0.31
Staphylococcus aureus [21]
  fractional inhibitory concentration index (FICI): 0.5
Staphylococcus aureus [22]
  fractional inhibitory concentration index (FICI): 0.25
Staphylococcus aureus [17]
  fractional inhibitory concentration index (FICI): 0.5

## CC[C@@H]1CC[C@@]2(C)C(C)=CCC[C@@H]2[C@@]1(C)CCC1=CC(=O)O[C@@H]1O
Staphylococcus aureus [23]
  fractional inhibitory concentration index (FICI): 0.321
Staphylococcus aureus [13]
  fractional inhibitory concentration index (FICI): 0.223
Staphylococcus aureus [24]
  fractional inhibitory concentration index (FICI): 0.34
Staphylococcus aureus [25]
  fractional inhibitory concentration index (FICI): 0.32
